From paper PMC10252048, “Correction: Gubič et al. Design of New Potent and Selective Thiophene-Based KV1.3 Inhibitors and Their Potential for Anticancer Activity. Cancers 2022, 14, 2595” (Cancers, 2023)

Assays:
Assay in all cases: selectivity, HiClamp system on oocytes
Format in all cases: cell-based
Settings in all cases: 10 µM
KV1.1 = molecular target: T1, KV1.1 (Homo sapiens, UniProt Q09470)
T1 construct: expressed in transfected cells; host or cells: Xenopus laevis oocytes

KV1.2 = molecular target: T2, KV1.2 (Homo sapiens, UniProt P16389)
T2 construct: expressed in transfected cells; host or cells: Xenopus laevis oocytes

KV1.4 = molecular target: T3, KV1.4 (Homo sapiens, UniProt P22459)
T3 construct: expressed in transfected cells; host or cells: Xenopus laevis oocytes

KV1.5 = molecular target: T4, KV1.5 (Homo sapiens, UniProt P22460)
T4 construct: expressed in transfected cells; host or cells: Xenopus laevis oocytes

KV1.6 = molecular target: T5, KV1.6 (Homo sapiens, UniProt P17658)
T5 construct: expressed in transfected cells; host or cells: Xenopus laevis oocytes

KV2.1 = molecular target: T6, KV2.1 (Homo sapiens, UniProt Q14721)
T6 construct: expressed in transfected cells; host or cells: Xenopus laevis oocytes
T6 sequence (Q14721 1-858): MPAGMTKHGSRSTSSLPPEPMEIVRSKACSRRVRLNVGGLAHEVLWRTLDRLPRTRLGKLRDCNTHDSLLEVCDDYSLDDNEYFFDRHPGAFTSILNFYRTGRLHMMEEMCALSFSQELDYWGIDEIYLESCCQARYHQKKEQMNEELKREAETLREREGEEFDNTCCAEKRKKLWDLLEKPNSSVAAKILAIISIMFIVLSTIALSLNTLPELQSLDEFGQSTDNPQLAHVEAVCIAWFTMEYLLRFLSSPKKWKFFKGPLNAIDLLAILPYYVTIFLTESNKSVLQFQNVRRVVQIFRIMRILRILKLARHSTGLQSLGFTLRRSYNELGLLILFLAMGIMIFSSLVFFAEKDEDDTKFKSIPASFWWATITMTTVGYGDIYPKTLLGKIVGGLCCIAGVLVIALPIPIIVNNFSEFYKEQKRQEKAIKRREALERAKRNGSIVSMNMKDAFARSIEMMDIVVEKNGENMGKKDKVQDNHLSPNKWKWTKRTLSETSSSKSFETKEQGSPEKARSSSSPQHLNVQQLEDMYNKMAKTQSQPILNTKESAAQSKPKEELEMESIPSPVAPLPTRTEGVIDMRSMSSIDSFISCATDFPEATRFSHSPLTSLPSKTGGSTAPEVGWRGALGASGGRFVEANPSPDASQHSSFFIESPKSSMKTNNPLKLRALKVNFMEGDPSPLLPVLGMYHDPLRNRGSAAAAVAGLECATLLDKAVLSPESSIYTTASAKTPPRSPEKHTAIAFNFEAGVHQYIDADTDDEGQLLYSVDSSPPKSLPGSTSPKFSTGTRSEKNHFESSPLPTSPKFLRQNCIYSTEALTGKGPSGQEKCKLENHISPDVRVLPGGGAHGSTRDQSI

KV4.2 = molecular target: T7, KV4.2 (Homo sapiens, UniProt Q9NZV8)
T7 construct: expressed in transfected cells; host or cells: Xenopus laevis oocytes
T7 sequence (Q9NZV8 1-630): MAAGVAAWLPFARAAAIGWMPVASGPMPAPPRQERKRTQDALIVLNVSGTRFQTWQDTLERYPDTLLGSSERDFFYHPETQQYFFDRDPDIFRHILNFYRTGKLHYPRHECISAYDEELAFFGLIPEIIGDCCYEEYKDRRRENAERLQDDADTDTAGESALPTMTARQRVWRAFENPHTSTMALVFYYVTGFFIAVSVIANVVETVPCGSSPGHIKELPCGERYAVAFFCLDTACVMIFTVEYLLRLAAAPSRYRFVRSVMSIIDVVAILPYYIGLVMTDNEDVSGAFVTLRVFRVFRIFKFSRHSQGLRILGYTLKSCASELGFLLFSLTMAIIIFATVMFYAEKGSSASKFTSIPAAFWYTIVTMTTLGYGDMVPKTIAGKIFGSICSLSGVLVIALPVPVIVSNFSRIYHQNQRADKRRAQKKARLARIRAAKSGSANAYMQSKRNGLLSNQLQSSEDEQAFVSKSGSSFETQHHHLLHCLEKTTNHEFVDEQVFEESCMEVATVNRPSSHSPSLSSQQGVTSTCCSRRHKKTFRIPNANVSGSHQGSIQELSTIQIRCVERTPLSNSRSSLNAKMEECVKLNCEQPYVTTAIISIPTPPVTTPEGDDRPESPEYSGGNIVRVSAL

KV10.1 = molecular target: T8, KV10.1 (Homo sapiens, UniProt O95259)
T8 construct: expressed in transfected cells; host or cells: Xenopus laevis oocytes
T8 sequence (O95259 1-989): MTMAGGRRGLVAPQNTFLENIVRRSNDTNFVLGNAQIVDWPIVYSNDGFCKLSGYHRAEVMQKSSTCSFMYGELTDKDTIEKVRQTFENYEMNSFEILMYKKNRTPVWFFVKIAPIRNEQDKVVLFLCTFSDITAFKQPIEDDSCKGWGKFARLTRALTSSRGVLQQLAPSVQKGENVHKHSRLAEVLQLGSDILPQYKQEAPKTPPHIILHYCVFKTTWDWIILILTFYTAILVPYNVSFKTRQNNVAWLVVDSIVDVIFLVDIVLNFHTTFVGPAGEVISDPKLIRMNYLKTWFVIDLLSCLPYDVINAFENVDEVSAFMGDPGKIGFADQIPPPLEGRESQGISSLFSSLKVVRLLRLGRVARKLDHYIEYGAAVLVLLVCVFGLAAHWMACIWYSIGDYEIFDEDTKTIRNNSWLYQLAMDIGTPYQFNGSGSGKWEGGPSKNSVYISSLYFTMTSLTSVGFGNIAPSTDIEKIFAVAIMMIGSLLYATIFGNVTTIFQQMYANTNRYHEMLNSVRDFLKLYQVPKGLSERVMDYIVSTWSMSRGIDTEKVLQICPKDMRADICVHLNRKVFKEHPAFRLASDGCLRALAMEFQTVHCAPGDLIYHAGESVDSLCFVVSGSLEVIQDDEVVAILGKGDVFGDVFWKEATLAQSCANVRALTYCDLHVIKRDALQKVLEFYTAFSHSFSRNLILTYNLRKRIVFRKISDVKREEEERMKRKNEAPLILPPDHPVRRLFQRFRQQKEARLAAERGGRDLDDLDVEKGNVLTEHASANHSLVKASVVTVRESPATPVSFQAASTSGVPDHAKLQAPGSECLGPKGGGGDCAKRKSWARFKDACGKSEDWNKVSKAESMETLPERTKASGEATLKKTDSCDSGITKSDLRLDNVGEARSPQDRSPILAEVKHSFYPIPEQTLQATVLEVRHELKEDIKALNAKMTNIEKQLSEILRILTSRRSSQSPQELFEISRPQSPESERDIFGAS

T4 sequence (P22460 whole entry): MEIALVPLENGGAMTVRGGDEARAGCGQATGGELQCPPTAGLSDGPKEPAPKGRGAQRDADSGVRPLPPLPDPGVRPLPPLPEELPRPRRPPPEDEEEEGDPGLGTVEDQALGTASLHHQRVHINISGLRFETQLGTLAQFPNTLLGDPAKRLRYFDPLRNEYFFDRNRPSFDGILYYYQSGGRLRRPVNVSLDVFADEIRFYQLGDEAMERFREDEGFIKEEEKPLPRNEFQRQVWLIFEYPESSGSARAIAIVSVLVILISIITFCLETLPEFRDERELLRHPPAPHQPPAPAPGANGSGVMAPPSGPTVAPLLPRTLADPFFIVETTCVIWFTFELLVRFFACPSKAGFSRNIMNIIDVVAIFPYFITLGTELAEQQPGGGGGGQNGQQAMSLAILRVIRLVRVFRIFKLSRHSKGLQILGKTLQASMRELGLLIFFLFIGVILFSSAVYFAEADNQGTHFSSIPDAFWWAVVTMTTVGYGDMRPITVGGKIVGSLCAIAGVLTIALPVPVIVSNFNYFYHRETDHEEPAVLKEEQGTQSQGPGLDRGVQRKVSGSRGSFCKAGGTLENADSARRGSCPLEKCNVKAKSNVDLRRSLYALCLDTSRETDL
T5 sequence (P17658 whole entry): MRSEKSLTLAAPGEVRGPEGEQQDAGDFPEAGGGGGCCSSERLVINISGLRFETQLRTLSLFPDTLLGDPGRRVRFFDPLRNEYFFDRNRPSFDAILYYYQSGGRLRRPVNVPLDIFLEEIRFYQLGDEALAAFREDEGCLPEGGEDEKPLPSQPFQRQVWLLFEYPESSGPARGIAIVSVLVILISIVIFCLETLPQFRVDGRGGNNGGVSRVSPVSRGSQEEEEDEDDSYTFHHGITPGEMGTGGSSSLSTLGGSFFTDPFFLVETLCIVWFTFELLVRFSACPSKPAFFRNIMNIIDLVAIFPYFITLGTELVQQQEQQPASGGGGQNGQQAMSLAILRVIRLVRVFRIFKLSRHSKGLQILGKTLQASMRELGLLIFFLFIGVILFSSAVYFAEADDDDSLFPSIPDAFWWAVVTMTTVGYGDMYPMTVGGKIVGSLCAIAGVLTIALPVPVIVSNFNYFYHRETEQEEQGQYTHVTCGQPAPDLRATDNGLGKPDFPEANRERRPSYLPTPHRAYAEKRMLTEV
T3 sequence (P22459 whole entry): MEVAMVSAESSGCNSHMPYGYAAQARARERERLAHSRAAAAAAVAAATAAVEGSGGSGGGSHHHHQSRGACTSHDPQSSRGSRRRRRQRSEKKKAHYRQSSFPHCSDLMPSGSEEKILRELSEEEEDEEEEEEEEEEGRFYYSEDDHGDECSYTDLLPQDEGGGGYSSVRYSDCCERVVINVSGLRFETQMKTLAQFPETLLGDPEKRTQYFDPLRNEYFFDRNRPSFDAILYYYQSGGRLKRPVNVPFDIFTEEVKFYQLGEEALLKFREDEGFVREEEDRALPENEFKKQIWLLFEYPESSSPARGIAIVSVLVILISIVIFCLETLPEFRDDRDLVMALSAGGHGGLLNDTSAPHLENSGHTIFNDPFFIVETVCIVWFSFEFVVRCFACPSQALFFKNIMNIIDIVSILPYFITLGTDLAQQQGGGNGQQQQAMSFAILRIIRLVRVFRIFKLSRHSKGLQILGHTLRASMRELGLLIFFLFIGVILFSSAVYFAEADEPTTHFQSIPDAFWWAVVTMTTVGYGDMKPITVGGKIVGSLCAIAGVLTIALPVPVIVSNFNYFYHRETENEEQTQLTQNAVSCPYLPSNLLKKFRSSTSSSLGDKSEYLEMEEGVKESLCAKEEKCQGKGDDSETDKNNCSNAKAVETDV
T2 sequence (P16389 whole entry): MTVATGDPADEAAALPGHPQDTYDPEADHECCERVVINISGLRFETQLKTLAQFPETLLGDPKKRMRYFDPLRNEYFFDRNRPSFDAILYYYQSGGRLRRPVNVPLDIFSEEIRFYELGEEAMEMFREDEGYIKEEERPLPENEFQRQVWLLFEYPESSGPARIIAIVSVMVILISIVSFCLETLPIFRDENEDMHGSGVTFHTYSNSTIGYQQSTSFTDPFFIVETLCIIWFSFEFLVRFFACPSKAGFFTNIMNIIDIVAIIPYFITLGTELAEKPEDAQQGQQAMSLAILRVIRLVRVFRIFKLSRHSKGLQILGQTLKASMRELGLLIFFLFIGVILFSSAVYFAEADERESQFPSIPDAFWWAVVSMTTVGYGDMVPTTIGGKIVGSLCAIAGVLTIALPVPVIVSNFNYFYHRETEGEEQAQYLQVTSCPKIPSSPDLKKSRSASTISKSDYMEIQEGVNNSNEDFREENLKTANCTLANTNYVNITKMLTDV
T1 sequence (Q09470 whole entry): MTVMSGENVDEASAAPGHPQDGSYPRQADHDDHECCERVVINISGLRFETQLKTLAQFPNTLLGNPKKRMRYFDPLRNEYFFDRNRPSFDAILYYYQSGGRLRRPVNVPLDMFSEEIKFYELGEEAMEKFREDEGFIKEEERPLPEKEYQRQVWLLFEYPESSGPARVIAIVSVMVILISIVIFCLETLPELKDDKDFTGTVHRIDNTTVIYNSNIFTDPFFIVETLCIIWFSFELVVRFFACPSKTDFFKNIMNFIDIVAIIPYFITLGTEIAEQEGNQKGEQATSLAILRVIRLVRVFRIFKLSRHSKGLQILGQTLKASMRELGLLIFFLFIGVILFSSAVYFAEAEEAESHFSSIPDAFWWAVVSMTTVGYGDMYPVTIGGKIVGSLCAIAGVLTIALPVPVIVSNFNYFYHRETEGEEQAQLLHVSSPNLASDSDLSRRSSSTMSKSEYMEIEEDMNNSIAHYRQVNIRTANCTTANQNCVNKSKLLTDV

O=c1ccc2c(OCCCCOc3ccccc3)c3ccoc3cc2o1 [PAP-1 (1), PAP-1]
no significant effects: effect on KV1.1 (KV1.1) | effect on KV1.2 (KV1.2) | effect on KV1.4 (KV1.4) | effect on KV1.5 (KV1.5) | effect on KV1.6 (KV1.6) | effect on KV2.1 (KV2.1) | effect on KV4.2 (KV4.2) | effect on KV10.1 (KV10.1)
